The structures appear in SMILES notation.

In the first experiment the test system is human iPSC derived kidney organoids. Briefly: Human iPSC derived kidney organoids with protamine sulfate injury. The class given is cell-based. Conditions: pretreated 0.2, 2, 20 uM for 20 minutes, 300 ug/mL protamine sulfate 1 hour; vs protamine sulfate alone. On the procedure:
Human iPSC derived kidney organoids differentiated for 22 days [Generation of kidney organoids from human pluripotent stem cells. Takasato M, Er P X, Chiu H S, Little M H. Nat Protoc. 2016 September; 11(9):1681-92. doi: 10.1038/nprot.2016.098. Epub 2016 Aug. 18.] were pretreated with 0.2, 2, 20 uM of AO or DMSO for 20 minutes then insulted with 300 ug/mL of protamine sulfate for 1 hour; 3 technical replicate organoids were treated for each condition. Organoids were washed twice with 1×DPBS−/−, fixed in 4% PFA for 25 minutes at room temperature, washed twice with 1×DPBS−/−, and transferred to 30% sucrose at 4° C. overnight, then snap frozen in Tissue-Tek O.C.T. compound. Organoids were cryosectioned at […] thickness and stained for phalloidin. Tiled images were acquired using a Zeiss LSM880 Airyscan super resolution confocal microscope using ZEN 2.3. Mean intensity values were quantified using Fiji/ImagJ1.52d.
As for `O=C1CN(c2cn[nH]c(=O)c2Cl)CCN1Cc1ccccc1C(F)(F)F` [AO], the “injury from protamine sulfate (mean phalloidin intensity per organoid)” value is listed as “decreased injury”.

Another experiment addresses T1, TRPC5 (Homo sapiens, UniProt Q9UL62).
T1 construct: expressed in transfected cells
T1 sequence (Q9UL62 1-973): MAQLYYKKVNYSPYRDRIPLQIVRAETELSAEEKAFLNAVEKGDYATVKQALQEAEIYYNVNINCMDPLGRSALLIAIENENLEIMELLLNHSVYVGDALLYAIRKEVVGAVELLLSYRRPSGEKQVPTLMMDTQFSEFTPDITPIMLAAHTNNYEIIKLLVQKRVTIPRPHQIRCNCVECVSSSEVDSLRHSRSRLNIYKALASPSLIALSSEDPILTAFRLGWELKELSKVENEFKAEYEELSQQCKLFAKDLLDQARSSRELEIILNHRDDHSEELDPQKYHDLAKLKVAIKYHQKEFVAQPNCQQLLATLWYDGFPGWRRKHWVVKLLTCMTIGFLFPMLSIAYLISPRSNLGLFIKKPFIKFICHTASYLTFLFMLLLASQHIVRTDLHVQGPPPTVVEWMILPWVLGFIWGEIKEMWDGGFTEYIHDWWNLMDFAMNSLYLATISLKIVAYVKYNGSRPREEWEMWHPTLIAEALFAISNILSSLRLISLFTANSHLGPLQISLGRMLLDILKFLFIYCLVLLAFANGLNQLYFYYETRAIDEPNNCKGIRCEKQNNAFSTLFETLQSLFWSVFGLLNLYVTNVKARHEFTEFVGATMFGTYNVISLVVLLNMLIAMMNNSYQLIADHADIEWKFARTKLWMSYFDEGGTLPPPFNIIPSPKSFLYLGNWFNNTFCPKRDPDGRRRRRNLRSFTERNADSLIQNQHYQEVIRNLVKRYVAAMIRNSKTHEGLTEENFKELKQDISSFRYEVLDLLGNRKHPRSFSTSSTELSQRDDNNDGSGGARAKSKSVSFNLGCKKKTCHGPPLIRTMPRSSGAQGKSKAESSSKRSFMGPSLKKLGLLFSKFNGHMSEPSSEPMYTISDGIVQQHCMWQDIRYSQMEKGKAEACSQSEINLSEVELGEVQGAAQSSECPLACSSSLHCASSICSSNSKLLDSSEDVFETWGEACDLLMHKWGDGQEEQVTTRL
Briefly: TRPC5 activity assay (FLIPR calcium fluorescence, HEK-TREx hTRPC5 cells). The class given is cell-based. To be noted: Table 6, HEK-TREx hTRPC5; read-out: hTRPC5-FLIPR IC50. On the procedure:
ICLN-1633 cells (HEK-TREx hTRPC5) expressing TRPC5 were generated as follows. Commercially available HekTrex-293 cells were seeded at 0.7×10^6 cells/well in a 1×6-well plate 24 hrs prior to transfection using 2 mL cell growth media containing no antibiotics (lx DMEM/high glucose (Hyclone #SH30022.02); 10% fetal bovine serum (Sigma) 2 mM sodium pyruvate, 10 mM HEPES). […] On day 2, 2 μg of plasmid DNA plus 6 μl of Xtreme-GENE HP reagent in Optimem (200 μl total volume) was prepared and incubated for 15 min at room temperature. This plasmid solution was then gently overlayed dropwise onto each well and the plate was gently swirled to mix complex with the media for approximately 30 seconds. Transfected cells were incubated at 37° C. in a 10% CO2 incubator for 24 hrs. The transfected cells were harvested and transferred into 2×150 mm dishes containing cell growth media with no antibiotics at 37° C.
The next day selection was initiated to generate a stable pool by adding cell growth media containing 150 μg/mL Hygromycin and 5 μg/mL Blasticidin and cells were allowed to grow. Media with the selection agent was changed every 1-2 days as needed to remove dead cells. After 7 days, the hygromycin concentration was reduced to 75 μg/mL and cells growth was allowed to continue.
Single clones were selected as follows. The stable pool was diluted to 10 cells/mL and seeded (100 μl/well) into 24×96 well plates (˜1 cell/well) and allowed to grow for 7 days in cell growth media. Fresh media (100 μl) was added and the cells allowed to grow for another 1-2 weeks and then stored frozen or used immediately.
10-point dose response curves were generated using the Echo-550 acoustic dispenser. Compound source plates were made by serially diluting compound stocks to create 10 mM, 1 mM, and 0.1 mM solutions in DMSO into Echo certified LDV plates. The Echo then serially spotted 100% DMSO stock solutions into source dose response plates to generate a 4-fold dilution scheme. 100% DMSO was added to the spotted dose response plates to bring the final volume to 5 μl. 300 nl of the dose response stock plate was then spotted into pre-incubation and stimulation assay plates. 50 μl of pre-incubation buffer and 100 μl of stimulation buffer was then added to the plates resulting in a final assay test concentration range of 30 μM to 0.0001 μM with a final DMSO concentration of 0.3%.
Human ICLN-1633 cells expressing were plated onto 384 well, black PDL-coated microplates and maintained in TRPC5 growth media the day prior to use for experiments. TRPC5 expression was induced by the application of 1 μg/mL tetracycline at the time of plating. […] Cells are incubated at room temperature, protected from light, for 60-90 minutes. After the incubation period, the dye is removed and replaced with 10 μl of EBSS. Cell, pre-incubation and stimulation plates are loaded onto the FLIPR-II and the assay is initiated. The FLIPR measures a 10 second baseline and then adds 10 μl of 2× compounds (or controls). Changes in fluorescence are monitored for an additional 5 minutes. After the 5 minute pre-incubation, 20 μl of 2× Riluzole (with 1× compound or controls) is added to the cell plate. The final Riluzole stimulation concentration in the assay is 30 μM. After the Riluzole addition, changes in fluorescence are monitored for an additional 5 minutes.
Compound modulation of TRPC5 calcium response was determined as follows. After the Englerin A, fluorescence was monitored for a 5-minute period. The maximum relative fluorescence response (minus the control response of 1 μM of an internal control compound known to maximally block TRPC5 calcium response, the “REF INHIB” in the formula below) was captured and exported from the FLIPR.
Compound effect is calculated as % inhibition using the following formula: […]
wherein “RFU” is the relative fluorescent units.
Turning to `CCc1ncccc1N(CC)C1CCN(c2cn[nH]c(=O)c2Cl)CC1` [LW, 4-chloro-5-[4-[ethyl(2-ethylpyridin-3-yl)amino]piperidin-1-yl]-2,3-dihydropyridazin-3-one], the IC50 fell in the range of 0.01 to 1000 nM.
The same measure, in the same setting: under `CCc1ncccc1[C@H](C)N1CCN(c2cn[nH]c(=O)c2Cl)CC1` [LY, 4-chloro-5-[4-[(1S)-1-(2-ethylpyridin-3-yl)ethyl]piperazin-1-yl]-2,3-dihydropyridazin-3-one] stands 0.01 to 1000 nM.
Still for that read-out and setting: under `CC(c1ccc(F)cc1C(F)(F)F)N1CCN(c2cn[nH]c(=O)c2Cl)CC1=O` (single isomer, unassigned) [MF] stands 0.01 to 1000 nM.

The same experiment, now with this note: Table 7, HEK-TREx hTRPC5; read-out: TRPC5-FLIPR IC50.
Take `C[C@@H]1Cc2c(nnn2[C@H](C)c2ccccc2C(F)(F)F)CN1c1cn[nH]c(=O)c1Cl` [MX, 4-chloro-5-[(6R)-6-methyl-1-[(1R)-1-[2-(trifluoromethyl)phenyl]ethyl]-1H,4H,5H,6H,7H-[1,2,3]triazolo[4,5-c]pyridin-5-yl]-2,3-dihydropyridazin-3-one]: the IC50 fell in the range of 0.01 to 1000 nM.
Still for that read-out and setting: under `CN1CCN(Cc2nn(Cc3ccccc3C(F)F)c3c2CN(c2cn[nH]c(=O)c2Cl)CC3)CC1` [OU, 4-Chloro-5-(1-[[2-(difluoromethyl)phenyl]methyl]-3-[(4-methylpiperazin-1-yl)methyl]-1H,4H,5H,6H,7H-pyrazolo[4,3-c]pyridin-5-yl)-2,3-dihydropyridazin-3-one] stands 0.01 to 1000 nM.
Same read-out and setting: under `CN1CCN(C(=O)c2nn(Cc3ccccc3C(F)F)c3c2CN(c2cn[nH]c(=O)c2Cl)CC3)CC1` [OM] stands 0.01 to 1000 nM.
Still for that read-out and setting: under `CN(c1ncc2c(n1)CN(c1cn[nH]c(=O)c1Cl)C2)c1ccccc1C(F)(F)F` [QM] stands 0.01 to 1000 nM.
With `NC(=O)c1nn(Cc2ccccc2C(F)(F)F)c2c1CN(c1cn[nH]c(=O)c1Cl)CC2` [OP, 5-(5-Chloro-6-oxo-1,6-dihydropyridazin-4-yl)-1-[[2-(trifluoromethyl)phenyl]methyl]-1H,4H,5H,6H,7H-pyrazolo[4,3-c]pyridine-3-carboxamide], the IC50 was 0.01 to 1000 nM.
On the same count and under the same terms, under `CN(C)C(=O)c1nc2c(n1Cc1ccccc1C(F)(F)F)CCN(c1cn[nH]c(=O)c1Cl)C2` [PW] stands 0.01 to 1000 nM.

As usually defined, the IC50 is the concentration that gives 50% inhibition.
